From ChEMBL document CHEMBL4619719, “A-ring and E-ring modifications of the cytotoxic alkaloid Luotonin A: Synthesis, computational and biological studies” (Bioorg Med Chem, 2020)
pIC50: −log10 of the molar value. The source made the active and inactive calls. The calls are words filed in the database; no cut-off is given here.

Tests used:
SW480 [1] = assay: Antiproliferation activity against human SW480 cells assessed as reduction in cell viability measured after 72 hours by MTT assay; format: functional, cell-based; conditions: SW480, 72 h
HL-60 [2] = assay: Antiproliferation activity against human HL60 cells assessed as reduction in cell viability measured after 72 hrs by MTT assay; format: functional, cell-based; conditions: HL-60, 72 h
SW480 [3] = assay: Induction of cell death in human SW480 cells assessed as accumulation of large nuclei at 2 uM incubated for 72 hrs by Hoechst […] staining based fluorescence microscopic method; format: functional
[4] = target: T1, DNA topoisomerase 1 (Homo sapiens) (UniProt P11387); assay: Inhibition of human TOP1 assessed as decrease in relaxation of supercoiled DNA using supercoiled plasmid DNA pGEM1 as substrate at 100 uM preincubated for 30 mins by SDS gel electrophoresis method; parameters: scale not given: the % may be the effect or the level left
T1 sequence (whole entry): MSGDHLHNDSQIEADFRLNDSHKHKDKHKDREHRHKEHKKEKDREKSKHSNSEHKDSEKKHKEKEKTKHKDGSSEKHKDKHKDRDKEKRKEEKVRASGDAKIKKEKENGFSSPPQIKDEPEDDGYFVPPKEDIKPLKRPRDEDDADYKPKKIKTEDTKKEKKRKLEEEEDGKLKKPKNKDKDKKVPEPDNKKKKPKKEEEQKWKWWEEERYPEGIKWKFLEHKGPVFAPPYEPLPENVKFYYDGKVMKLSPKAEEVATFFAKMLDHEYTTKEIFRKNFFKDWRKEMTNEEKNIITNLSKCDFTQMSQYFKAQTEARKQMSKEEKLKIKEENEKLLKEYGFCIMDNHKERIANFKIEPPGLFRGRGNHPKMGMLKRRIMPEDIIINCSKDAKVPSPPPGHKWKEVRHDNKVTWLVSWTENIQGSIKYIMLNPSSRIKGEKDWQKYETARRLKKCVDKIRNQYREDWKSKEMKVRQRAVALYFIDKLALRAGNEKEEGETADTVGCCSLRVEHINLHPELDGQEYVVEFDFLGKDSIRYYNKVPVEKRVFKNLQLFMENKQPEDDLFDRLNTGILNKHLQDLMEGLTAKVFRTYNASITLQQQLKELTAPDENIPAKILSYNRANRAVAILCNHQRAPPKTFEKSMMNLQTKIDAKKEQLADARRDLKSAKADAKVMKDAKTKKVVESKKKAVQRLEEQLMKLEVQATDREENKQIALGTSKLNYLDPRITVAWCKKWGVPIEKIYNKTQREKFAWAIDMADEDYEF

[5] = target: T1, DNA topoisomerase 1 (Homo sapiens); assay: Inhibition of human TOP1 assessed as decrease in relaxation of supercoiled DNA using supercoiled plasmid DNA pGEM1 as substrate at 10 uM preincubated for 30 mins by SDS gel electrophoresis method; parameters: scale not given: the % may be the effect or the level left
[6] = target: T1, DNA topoisomerase 1 (Homo sapiens); assay: Inhibition of human TOP1 assessed as decrease in relaxation of supercoiled DNA using supercoiled plasmid DNA pGEM1 as substrate at 1 uM preincubated for 30 mins by SDS gel electrophoresis method; parameters: scale not given: the % may be the effect or the level left
SW480 [7] = assay: Induction of cell cycle arrest in human SW480 cells assessed as accumulation in G2/M phase at 2 to 4 uM for 72 hrs by propidium iodide staining based flow cytometric analysis; format: functional
HL-60 [8] = assay: Induction of cell cycle arrest in human HL60 cells assessed as accumulation in G2/M phase at 2 to 4 uM 24 hrs by propidium iodide staining based flow cytometric analysis; format: functional
SW480 [9] = assay: Induction of cell cycle arrest in human SW480 cells assessed as S phase cell cycle arrest at 2 to 4 uM incubated for 72 hrs by propidium iodide staining based flow cytometric analysis; format: functional
HL-60 [10] = assay: Induction of apoptosis in human HL60 cels assessed as activation of caspases preincubated for 24 hrs followed by addition of fluorescent pan-caspase substrate incubated for 90 mins by fluorescence based assay; format: functional, cell-based
SW480 [11] = assay: Induction of apoptosis in human SW480 cells assessed as activation of caspases preincubated for 72 hrs followed by addition of fluorescent pan-caspase substrate incubated for 90 mins by fluorescence based assay; format: functional, cell-based
SW480 [12] = assay: Antiproliferative activity against human SW480 cells assessed as reduction in cell viability at 20 uM measured after 72 hours by MTT assay relative to control; format: functional
HL-60 [13] = assay: Antiproliferative activity against human HL60 cells assessed as reduction in cell viability at 20 uM measured after 72 hrs by MTT assay relative to control; format: functional
SW480 [14] = assay: Induction of cell death in human SW480 cells assessed as accumulation of large cells at 2 uM incubated for 72 hrs by Hoechst […] staining based fluorescence microscopic method; format: functional
HL-60 [15] = assay: Induction of cell cycle arrest in human HL60 cells assessed as accumulation of cells at G2 phase incubated for 24 hrs by propidium iodide staining based flow cytometric analysis; format: functional
SW480 [16] = assay: Induction of cell death in human SW480 cells assessed as accumulation of large nuclei incubated for 72 hrs by Hoechst […] staining based fluorescence microscopic method; format: functional
SW480 [17] = assay: Induction of cell death in human SW480 cells assessed as accumulation of large cells incubated for 72 hrs by Hoechst […] staining based fluorescence microscopic method; format: functional
HL-60 [18] = assay: Induction of cell cycle arrest in human HL60 cells assessed as accumulation of cells at G2 phase at 20 to 35 nM incubated for 24 hrs by propidium iodide staining based flow cytometric analysis; format: functional
HL-60 [19] = assay: Induction of cell cycle arrest in human HL60 cells assessed as accumulation of cells at S phase at 20 to 35 nM incubated for 24 hrs by propidium iodide staining based flow cytometric analysis; format: functional
SW480 [20] = assay: Induction of cell cycle arrest in human SW480 cells assessed as accumulation of cells at S phase at 20 to 35 nM incubated for 72 hrs by propidium iodide staining based flow cytometric analysis; format: functional

| Structure (SMILES) | Activity [4] | Activity [5] | Activity [6] | fold change (FC) (SW480 [12]) | fold change (FC) (HL-60 [13]) | further results |
| --- | --- | --- | --- | --- | --- | --- |
| Nc1ccc2nc3n(c(=O)c2c1)Cc1cc2cccc(N)c2nc1-3 | 12.6 to 13% | 9 to 9.2% | 2.6% | 0.31 | 0.01 | pIC50 (SW480 [1]): 5.69; pIC50 (HL-60 [2]): 6.09; Activity (SW480 [3]): Active; Activity (SW480 [7]): Active; Activity (HL-60 [8]): Active; Activity (SW480 [9]): inactive; Activity (HL-60 [10]): Active; Activity (SW480 [11]): inactive; Activity (SW480 [14]): Active |
| Nc1ccc2nc3c(cc2c1)Cn1c-3nc2ccccc2c1=O | – | – | – | 0.24 | 0.26 | – |
| COc1cc(OC)c2cc3c(nc2c1)-c1nc2ccc(Br)cc2c(=O)n1C3 | – | – | – | 0.89 | inactive | – |
| COc1ccc2nc3c(cc2c1)Cn1c-3nc2ccc(Br)cc2c1=O | – | – | – | inactive | 0.82 | – |
| COc1cc(OC)c2cc3c(nc2c1)-c1nc2ccc(I)cc2c(=O)n1C3 | – | – | – | 0.99 | 0.83 | – |
| O=c1c2ccccc2nc2n1Cc1cc3cccc(F)c3nc1-2 | – | – | – | 0.88 | 0.61 | – |
| COc1cc(OC)c2cc3c(nc2c1)-c1nc2ccc(N)cc2c(=O)n1C3 | – | – | – | 0.98 | 0.73 | – |
| Nc1cccc2cc3c(nc12)-c1nc2ccccc2c(=O)n1C3 | – | – | – | 0.58 | 0.02 | – |
| O=c1c2ccccc2nc2n1Cc1cc3ccccc3nc1-2 [LUOTONIN A] | 16.3% | 2.6% | 2.1% | 0.91 | 0.83 | – |
| CC[C@@]1(O)C(=O)OCc2c1cc1n(c2=O)Cc2cc3ccccc3nc2-1 [CAMPTOTHECIN] | 26.3% | 6% | 2.1% | 0.3 | 0 | pIC50 (SW480 [1]): 6.68; pIC50 (HL-60 [2]): 7.74; Activity (HL-60 [15]): Dose-dependent effect; Activity (SW480 [16]): inactive; Activity (SW480 [17]): inactive; Activity (HL-60 [18]): inactive; Activity (HL-60 [19]): Active; Activity (SW480 [20]): Active |
